What was measured:
CYP2C9 = CYP2C9 (Homo sapiens, UniProt P11712); experiment: Inhibition of CYP2C9 (unknown origin) at 10 uM relative to control; type: ADME
HDAC8 = molecular target: T1, HDAC8 (Homo sapiens, UniProt Q9BY41); experiment: Inhibition of HDAC8 (unknown origin) at 10 uM relative to control
T1 sequence (Q9BY41 whole entry): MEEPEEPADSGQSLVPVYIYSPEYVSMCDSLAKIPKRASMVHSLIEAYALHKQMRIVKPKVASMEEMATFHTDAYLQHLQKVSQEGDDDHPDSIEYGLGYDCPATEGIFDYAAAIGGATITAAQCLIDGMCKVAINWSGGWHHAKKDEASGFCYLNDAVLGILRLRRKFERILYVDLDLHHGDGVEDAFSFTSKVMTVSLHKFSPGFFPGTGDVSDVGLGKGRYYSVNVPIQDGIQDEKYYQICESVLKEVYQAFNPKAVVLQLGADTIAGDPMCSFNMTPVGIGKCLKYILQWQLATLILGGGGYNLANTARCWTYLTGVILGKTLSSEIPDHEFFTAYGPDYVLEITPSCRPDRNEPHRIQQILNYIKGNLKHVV

CYP3A4 = CYP3A4 (Homo sapiens, UniProt P08684); experiment: Inhibition of CYP3A4 (unknown origin) at 10 uM relative to control; type: ADME
[1] = Cytotoxicity against human hTERT cells assessed as cell growth inhibition at 10 uM after 48 hrs relative to control; type: cell-based, hTERT-BJ
[2] = Cytotoxicity against human HEK293 cells assessed as cell growth inhibition at 10 uM after 48 hrs relative to control; type: cell-based
[3] = Cytotoxicity against human MCF7 cells assessed as cell growth inhibition at 10 uM after 24 hrs relative to control; type: cell-based
HDAC4 = HDAC4 (Homo sapiens, UniProt P56524); experiment: Inhibition of HDAC4 (unknown origin) at 10 uM relative to control
[4] = Cytotoxicity against human HEK293 cells assessed as cell growth inhibition at 10 uM after 24 hrs relative to control; type: cell-based
[5] = Cytotoxicity against human U2OS cells assessed as cell growth inhibition at 10 uM after 24 hrs relative to control; type: cell-based
CYP2C19 = CYP2C19 (Homo sapiens, UniProt P33261); experiment: Inhibition of CYP2C19 (unknown origin) at 10 uM relative to control; type: ADME
CYP1A2 = molecular target: T2, CYP1A2 (Homo sapiens, UniProt P05177); experiment: Inhibition of CYP1A2 (unknown origin) at 10 uM relative to control; type: ADME
T2 sequence (P05177 whole entry): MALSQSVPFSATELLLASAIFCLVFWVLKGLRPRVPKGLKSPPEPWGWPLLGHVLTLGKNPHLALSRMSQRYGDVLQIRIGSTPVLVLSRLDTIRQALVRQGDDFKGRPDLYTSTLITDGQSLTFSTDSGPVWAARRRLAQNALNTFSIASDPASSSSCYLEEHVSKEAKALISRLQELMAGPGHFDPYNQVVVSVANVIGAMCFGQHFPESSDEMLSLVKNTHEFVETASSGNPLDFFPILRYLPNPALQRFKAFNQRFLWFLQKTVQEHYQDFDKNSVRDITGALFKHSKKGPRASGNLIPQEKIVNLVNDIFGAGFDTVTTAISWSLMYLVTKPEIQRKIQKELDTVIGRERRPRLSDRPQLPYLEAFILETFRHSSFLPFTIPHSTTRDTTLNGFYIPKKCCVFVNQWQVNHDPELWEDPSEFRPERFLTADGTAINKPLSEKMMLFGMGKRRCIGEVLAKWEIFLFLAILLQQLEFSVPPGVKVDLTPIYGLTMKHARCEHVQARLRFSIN

HDAC6 = molecular target: T3, HDAC6 (Homo sapiens, UniProt Q9UBN7); experiment: Inhibition of HDAC6 (unknown origin) at 10 uM relative to control
T3 sequence (Q9UBN7 whole entry): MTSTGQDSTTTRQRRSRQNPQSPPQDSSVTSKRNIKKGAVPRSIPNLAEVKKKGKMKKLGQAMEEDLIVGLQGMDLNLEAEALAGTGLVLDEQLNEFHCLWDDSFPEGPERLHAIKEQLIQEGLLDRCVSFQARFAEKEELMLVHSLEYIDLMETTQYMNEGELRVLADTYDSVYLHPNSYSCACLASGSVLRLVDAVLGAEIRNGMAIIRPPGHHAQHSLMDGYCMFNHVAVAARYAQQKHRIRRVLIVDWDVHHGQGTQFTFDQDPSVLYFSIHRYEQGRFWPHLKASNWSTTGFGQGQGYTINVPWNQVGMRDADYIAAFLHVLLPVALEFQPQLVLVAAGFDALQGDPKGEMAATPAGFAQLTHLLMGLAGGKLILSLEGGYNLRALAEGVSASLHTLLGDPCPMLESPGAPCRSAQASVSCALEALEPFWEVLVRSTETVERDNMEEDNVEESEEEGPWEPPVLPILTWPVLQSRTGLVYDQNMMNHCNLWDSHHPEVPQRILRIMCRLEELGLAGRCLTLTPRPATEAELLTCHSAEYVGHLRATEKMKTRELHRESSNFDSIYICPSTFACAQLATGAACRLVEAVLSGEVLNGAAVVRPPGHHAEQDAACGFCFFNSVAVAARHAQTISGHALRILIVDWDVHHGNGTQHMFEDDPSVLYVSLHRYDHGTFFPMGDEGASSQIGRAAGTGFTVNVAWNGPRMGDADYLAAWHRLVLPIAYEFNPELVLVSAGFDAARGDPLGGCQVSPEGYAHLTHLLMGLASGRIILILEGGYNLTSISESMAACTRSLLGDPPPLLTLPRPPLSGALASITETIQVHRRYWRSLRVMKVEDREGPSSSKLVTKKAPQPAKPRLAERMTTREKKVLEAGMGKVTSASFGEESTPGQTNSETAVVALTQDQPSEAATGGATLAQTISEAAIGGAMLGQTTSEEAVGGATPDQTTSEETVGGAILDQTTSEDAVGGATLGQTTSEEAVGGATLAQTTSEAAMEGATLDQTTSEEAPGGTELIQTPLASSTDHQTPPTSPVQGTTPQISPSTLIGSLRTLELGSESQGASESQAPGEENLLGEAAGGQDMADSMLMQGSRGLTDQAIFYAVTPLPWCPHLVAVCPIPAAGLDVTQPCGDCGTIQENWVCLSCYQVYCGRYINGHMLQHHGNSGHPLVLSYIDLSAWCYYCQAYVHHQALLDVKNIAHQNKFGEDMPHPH

[6] = Cytotoxicity against human hTERT cells assessed as cell growth inhibition at 10 uM after 24 hrs relative to control; type: cell-based, hTERT-BJ
[7] = Cytotoxicity against human U2OS cells assessed as cell growth inhibition at 10 uM after 48 hrs relative to control; type: cell-based
Aurora B = Aurora B (Homo sapiens, UniProt Q96GD4); experiment: Inhibition of Aurora B (unknown origin) at 10 uM relative to control
hERG (KCNH2) = hERG (KCNH2) (Homo sapiens, UniProt Q12809); experiment: Inhibition of human ERG at 10 uM by fluorescence polarization assay relative to control
[8] = molecular target: 3',5'-cyclic-AMP phosphodiesterase 4C (Homo sapiens) (UniProt Q08493); experiment: Inhibition of PDE4C1 (unknown origin) at 10 uM relative to control
3',5'-cyclic-AMP phosphodiesterase 4C (Homo sapiens), sequence (Q08493 whole entry): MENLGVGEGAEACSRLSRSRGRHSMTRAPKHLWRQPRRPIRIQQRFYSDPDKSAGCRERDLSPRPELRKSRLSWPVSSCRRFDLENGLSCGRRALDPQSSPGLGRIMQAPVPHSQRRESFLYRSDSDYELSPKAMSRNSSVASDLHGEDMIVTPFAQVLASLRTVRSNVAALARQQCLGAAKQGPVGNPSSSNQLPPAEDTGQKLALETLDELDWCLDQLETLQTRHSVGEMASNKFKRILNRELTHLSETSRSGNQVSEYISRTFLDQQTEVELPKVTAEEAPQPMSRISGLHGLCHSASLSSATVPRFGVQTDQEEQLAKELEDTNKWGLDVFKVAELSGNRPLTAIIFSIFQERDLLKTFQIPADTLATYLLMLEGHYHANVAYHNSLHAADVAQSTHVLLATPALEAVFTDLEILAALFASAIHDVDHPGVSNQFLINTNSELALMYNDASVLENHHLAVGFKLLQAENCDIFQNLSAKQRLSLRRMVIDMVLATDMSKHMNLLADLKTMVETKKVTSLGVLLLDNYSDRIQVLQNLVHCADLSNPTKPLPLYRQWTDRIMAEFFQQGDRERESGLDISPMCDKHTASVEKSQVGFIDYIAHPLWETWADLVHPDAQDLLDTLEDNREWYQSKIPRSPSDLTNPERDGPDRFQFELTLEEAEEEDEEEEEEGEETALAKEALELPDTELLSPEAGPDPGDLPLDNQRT

CYP2C19, sequence (P33261 whole entry): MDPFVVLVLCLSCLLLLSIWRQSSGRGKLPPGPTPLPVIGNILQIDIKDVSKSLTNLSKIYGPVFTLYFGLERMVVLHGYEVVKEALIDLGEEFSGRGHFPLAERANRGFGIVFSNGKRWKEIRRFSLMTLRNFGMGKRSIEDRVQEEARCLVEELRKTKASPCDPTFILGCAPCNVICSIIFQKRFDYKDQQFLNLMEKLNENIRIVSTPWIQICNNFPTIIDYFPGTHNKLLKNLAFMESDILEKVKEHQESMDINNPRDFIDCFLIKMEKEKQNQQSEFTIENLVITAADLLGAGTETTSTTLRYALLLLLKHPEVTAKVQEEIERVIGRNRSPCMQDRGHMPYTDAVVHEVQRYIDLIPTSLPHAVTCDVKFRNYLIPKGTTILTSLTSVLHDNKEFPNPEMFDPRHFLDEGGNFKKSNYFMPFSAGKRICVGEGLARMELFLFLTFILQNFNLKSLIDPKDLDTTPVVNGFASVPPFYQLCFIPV
hERG (KCNH2), sequence (Q12809 whole entry): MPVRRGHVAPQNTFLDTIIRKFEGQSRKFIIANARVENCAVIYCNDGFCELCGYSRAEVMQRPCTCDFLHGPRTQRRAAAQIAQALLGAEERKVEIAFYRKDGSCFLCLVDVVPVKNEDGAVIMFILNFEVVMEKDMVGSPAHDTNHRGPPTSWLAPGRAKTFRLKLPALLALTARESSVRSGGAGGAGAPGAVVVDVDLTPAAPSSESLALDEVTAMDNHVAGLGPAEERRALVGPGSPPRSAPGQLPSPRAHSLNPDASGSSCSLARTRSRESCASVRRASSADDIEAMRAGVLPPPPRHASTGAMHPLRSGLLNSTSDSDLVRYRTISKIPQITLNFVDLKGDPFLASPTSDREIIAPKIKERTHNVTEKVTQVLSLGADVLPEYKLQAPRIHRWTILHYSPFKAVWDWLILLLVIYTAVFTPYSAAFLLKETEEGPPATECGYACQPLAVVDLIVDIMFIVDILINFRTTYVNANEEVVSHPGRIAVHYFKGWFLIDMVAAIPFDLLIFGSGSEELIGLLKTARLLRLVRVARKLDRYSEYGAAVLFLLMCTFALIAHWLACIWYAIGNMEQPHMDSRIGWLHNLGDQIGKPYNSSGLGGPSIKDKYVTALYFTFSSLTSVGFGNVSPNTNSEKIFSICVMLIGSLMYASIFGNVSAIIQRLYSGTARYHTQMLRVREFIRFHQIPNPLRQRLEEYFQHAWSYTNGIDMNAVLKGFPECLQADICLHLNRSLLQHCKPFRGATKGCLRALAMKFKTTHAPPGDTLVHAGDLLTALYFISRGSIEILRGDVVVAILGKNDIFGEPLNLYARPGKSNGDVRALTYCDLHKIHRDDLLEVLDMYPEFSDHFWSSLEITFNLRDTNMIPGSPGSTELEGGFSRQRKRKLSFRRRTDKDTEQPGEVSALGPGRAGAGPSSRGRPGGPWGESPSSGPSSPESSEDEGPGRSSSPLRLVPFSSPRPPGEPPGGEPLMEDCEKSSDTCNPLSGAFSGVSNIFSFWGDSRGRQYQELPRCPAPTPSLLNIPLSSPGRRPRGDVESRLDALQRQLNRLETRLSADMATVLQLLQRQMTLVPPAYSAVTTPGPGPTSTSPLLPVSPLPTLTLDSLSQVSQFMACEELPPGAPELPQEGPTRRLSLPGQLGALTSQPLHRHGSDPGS
Aurora B, sequence (Q96GD4 whole entry): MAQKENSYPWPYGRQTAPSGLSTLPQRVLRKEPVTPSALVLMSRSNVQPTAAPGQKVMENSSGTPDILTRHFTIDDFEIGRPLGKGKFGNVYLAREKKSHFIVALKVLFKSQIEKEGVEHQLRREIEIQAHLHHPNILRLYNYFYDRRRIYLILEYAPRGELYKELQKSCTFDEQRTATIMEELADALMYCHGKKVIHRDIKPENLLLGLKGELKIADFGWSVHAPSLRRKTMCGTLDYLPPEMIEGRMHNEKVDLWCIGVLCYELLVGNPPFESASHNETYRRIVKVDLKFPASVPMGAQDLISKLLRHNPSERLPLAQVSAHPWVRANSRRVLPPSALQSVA
HDAC4, sequence (P56524 whole entry): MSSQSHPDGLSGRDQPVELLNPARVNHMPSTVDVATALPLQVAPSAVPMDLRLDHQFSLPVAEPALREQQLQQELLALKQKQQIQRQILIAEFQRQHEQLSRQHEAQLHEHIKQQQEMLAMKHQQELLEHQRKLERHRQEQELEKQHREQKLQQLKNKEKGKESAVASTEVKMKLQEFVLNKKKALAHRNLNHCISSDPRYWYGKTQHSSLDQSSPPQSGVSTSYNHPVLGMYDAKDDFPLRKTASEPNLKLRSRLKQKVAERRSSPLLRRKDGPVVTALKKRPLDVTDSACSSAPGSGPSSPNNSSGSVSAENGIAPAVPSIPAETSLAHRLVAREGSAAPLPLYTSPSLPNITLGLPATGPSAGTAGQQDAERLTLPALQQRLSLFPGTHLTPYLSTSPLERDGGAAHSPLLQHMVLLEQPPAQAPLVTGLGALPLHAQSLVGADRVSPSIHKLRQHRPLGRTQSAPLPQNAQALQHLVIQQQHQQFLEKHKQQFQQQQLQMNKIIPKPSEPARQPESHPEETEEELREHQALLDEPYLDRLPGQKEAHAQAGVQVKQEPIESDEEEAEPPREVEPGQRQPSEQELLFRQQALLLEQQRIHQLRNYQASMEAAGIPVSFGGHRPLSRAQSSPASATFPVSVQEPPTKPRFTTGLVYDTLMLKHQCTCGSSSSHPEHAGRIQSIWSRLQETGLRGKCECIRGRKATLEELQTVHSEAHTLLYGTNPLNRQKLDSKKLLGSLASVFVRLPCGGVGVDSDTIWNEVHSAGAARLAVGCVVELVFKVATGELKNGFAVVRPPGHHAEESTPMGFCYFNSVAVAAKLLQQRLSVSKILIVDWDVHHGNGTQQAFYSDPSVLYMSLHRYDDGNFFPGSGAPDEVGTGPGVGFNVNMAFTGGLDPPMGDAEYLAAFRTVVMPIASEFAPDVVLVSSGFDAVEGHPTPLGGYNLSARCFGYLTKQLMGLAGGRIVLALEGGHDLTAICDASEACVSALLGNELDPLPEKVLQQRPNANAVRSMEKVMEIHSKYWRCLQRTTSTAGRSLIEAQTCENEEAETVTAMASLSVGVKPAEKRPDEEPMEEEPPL
CYP3A4, sequence (P08684 whole entry): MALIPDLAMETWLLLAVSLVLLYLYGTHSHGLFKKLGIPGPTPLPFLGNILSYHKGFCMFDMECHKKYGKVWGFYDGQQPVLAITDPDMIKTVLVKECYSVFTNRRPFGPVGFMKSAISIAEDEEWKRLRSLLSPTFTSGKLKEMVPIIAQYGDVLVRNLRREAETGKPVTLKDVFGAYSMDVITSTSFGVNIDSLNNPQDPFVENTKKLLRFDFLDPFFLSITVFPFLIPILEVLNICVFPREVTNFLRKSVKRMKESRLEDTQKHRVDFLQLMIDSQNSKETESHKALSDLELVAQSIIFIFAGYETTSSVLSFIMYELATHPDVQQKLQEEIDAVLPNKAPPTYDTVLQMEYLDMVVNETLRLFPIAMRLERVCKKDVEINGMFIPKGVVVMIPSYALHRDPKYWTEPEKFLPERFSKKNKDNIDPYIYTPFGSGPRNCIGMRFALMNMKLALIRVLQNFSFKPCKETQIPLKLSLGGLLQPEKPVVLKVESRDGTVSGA
CYP2C9, sequence (P11712 whole entry): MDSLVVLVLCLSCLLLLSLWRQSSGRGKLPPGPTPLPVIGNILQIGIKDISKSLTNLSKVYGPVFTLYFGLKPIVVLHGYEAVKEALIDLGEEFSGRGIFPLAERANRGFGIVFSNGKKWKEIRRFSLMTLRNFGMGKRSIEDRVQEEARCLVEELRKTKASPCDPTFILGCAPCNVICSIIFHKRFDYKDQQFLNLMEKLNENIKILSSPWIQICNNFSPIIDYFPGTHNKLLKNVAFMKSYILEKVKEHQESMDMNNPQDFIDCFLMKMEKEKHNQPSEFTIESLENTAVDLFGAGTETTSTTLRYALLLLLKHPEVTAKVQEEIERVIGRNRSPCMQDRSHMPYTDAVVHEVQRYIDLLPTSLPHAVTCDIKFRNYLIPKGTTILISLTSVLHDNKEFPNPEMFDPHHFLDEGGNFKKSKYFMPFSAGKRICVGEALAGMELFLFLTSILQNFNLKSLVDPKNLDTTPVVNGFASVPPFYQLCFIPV

Row | SMILES | inhibition at 10 µM (CYP2C9) [%] | inhibition at 10 µM (HDAC8) [%] | inhibition at 10 µM (CYP3A4) [%] | inhibition at 48 h, 10 µM [1] [%] | inhibition at 48 h, 10 µM [2] [%] | inhibition at 24 h, 10 µM [3] [%] | inhibition at 10 µM (HDAC4) [%] | inhibition at 24 h, 10 µM [4] [%] | inhibition at 24 h, 10 µM [5] [%] | inhibition at 10 µM (CYP2C19) [%] | inhibition at 10 µM (CYP1A2) [%] | inhibition at 10 µM (HDAC6) [%] | inhibition at 24 h, 10 µM [6] [%] | inhibition at 48 h, 10 µM [7] [%] | inhibition at 10 µM (Aurora B) [%] | inhibition at 10 µM (hERG (KCNH2)) [%] | inhibition [8] [%]
1 | Cc1cc(OCC(=O)O)cc(C)c1Cc1ccc(O)cc1 | < 50 | < 50 | < 50 | < 50 | < 50 | < 50 | < 50 | < 50 | < 50 | < 50 | < 50 | < 50 | < 50 | < 50 | < 50 | < 25 | < 50
2 | CC(=O)Nc1ccc(Cc2c(C)cc(OCC(=O)O)cc2C)cc1C(C)C | < 50 | < 50 | < 50 | < 50 | < 50 | < 50 | < 50 | < 50 | < 50 | < 50 | < 50 | < 50 | < 50 | < 50 | < 50 | < 25 | < 50
3 | Cc1cc(OCC(=O)O)cc(C)c1Cc1ccc(N)c(C(C)C)c1 | < 50 | < 50 | 51 | < 50 | < 50 | < 50 | < 50 | < 50 | < 50 | < 50 | < 50 | < 50 | < 50 | < 50 | < 50 | < 40 | < 50

Reference: ChEMBL document CHEMBL4680157, “Design, synthesis and biological evaluation of novel TRβ selective agonists sustained by ADME-toxicity analysis” (Eur J Med Chem, 2020)
